The values below come from patent publication US6653289B1, “L-arabino-disaccharides of anthracyclines, processes for their preparation, and pharmaceutical compositions containing them” (Menarini Ricerche S.p.A., priority 1999, dated 2003).

Test [1] relates to H460 (pulmonary carcinoma). Kind of test: cytotoxicity in vitro on H460. Type of test: cell-based. The conditions noted are these: read-out: IC50, concentration necessary for 50% inhibition of diseased cells growth, 24-h exposure to the drug. The text has this:
(§1) (R8=H, R9=R10=R12=OH, R11=NH2) described in patent application WO 95/09173 on lines H460 (pulmonary carcinoma) and GLC-4 (pulmonary microcarcinoma).

The subject of test [2] is GLC-4 (pulmonary microcarcinoma). Put plainly: cytotoxicity in vitro on GLC-4. Particulars: read-out: IC50, concentration necessary for 50% inhibition of diseased cells growth, 24-h exposure to the drug. The test is classed as cell-based, human.
Description: as §1

The test system of test [3] is pulmonary microcytoma GLC-4. Put plainly: activity in vivo on human tumour line implanted s.c. in naked mice. Particulars: GLC-4 s.c. in naked mice, 6 mg/kg every 3-4 days, 5 cycles (total 30 mg/kg); for LCK (Log Cell Kill): T-C/DT×3.32; for TWI % (300 mg), Tumour Weight Inhibition %: determined 7-10 days after last treatment. The procedure:
The activity in vivo of (Ia), compared with that of (V), was also evaluated on a human tumour line implanted s.c. in naked mice (pulmonary microcytoma GLC-4) after administration of 6 mg/kg of drug every 3-4 days, for 5 treatment cycles.
The results obtained are shown in Table 2, which reports the Tumour Weight Inhibition % (TWI% determined 7-10 days after the last treatment) and the Log Cell Kill [LCK in animals treated according to the formula: T-C/DT×3.32, where T and C are the days that tumours take to reach the significant weight fixed in each test. in treated animals (T) and in controls (C)].

Take `C[C@@H]1O[C@@H](O[C@@H]2[C@H](C)O[C@@H](O[C@H]3C[C@](O)(C(=O)CO)Cc4c(O)c5c(c(O)c43)C(=O)c3ccccc3C5=O)C[C@@H]2O)C[C@H](N)[C@H]1O.Cl` [Ia, 7-O-[2,6-dideoxy-4-O-(2,3,6-trideoxy-3-amino-α-L-arabino-hexopyranosyl)-α-L-lyxo-hexopyranosyl]-4-demethoxy-doxorubicinone chlorhydrate]: the IC50 in test [1] came out at 10 nM. The IC50 in test [2] turned out to be 11 nM. Moreover, in test [3], the “LCK (Log Cell Kill)” value amounted to 1.1 and the “TWI % (300 mg), Tumour Weight Inhibition %” value is on record as 93%.
As for `CC1OC(OC2C(O)CC(OC3CC(O)(C(=O)CO)Cc4c(O)c5c(c(O)c43)C(=O)c3ccccc3C5=O)OC2C)CC(N)C1O.Cl` [V, 7-O-[2,6-dideoxy-4-O-(2,3,6-trideoxy-3-amino-α-L-lyxo-hexopyranosyl)-α-L-lyxo-hexopyranosyl]-4-demethoxy-doxorubicinone chlorhydrate], in test [1], the IC50 came to 14 nM. In test [2], the IC50 was found to be 55 nM. In test [3], the “LCK (Log Cell Kill)” value is 0.4 and the “TWI % (300 mg), Tumour Weight Inhibition %” value came to 60%.
